Publication PMC2118091 (The Journal of Experimental Medicine, 2006)

What was measured:
complement C3 = settings: pretreatment of rats, myocardial infarction model; cited from earlier work
IgM CM-22 [1] = test: SPR analysis of peptide binding to IgM CM-22; parameters: species or system mouse
WT mice = test: Intestinal RI model in WT mice, pathology score; format: in vivo, mouse; settings: final serum concentration, i.v. 5 min before reperfusion
[2] = test system: IgM, complement C4 and C3; test: Immunohistology of IgM, C4 and C3 deposition after intestinal RI in WT mice; format: in vivo, mouse; settings: RI-treated WT mice given P8 peptide; unpublished data
IgM CM-22 [3] = test: Titration of P8 peptide with IgM CM-22; parameters: species or system mouse; settings: 200 μg IgM CM-22 (0.1–0.2 μM); unpublished data

## sCR1: specific soluble inhibitor of complement C3 (sCR1)
Complement C3
  myocardial injury: dramatically reduced injury

## AGCMPYVRIPTA [control peptide, reference compound]
IgM CM-22 [1]; SPR, PBS, 25°C, control peptide injected at 117 μM
  binding to IgM CM-22 surface: no binding

## NGNNVNGNRNNN [P8 peptide]
WT mice
  protective concentration in intestinal RI: 10 µM
[2]
  IgM, C4 and C3 deposition within microvilli: colocalized within microvilli of RI-treated WT mice but not in mice administered P8 peptide
IgM CM-22 [3]
  optimal peptide concentration sufficient to block IgM CM-22: ~10 µM
IgM CM-22 [1]; comparison in words, no KD printed for P8
  CM-22 binding affinity relative to N2: higher CM-22 binding affinity relative to N2
